Results from PMC8733953, “Identifying specific matrix metalloproteinase-2-inhibiting peptides through phage display-based subtractive screening” (Turkish Journal of Biology, 2021).
“Also recorded” adds a separate entry of the source.

System: HUVEC
Experiment: Wound-healing (cell migration) assay
Assay type: cell-based, human
Conditions: peptide 100 μM or EDTA 2 mM, 24 h
Procedure: For cell culture study, human umbilical vein endothelial cells (HUVECs; C2519A) were purchased from Lonza, Basel, Switzerland. The cells were cultured in endothelial complete media, which is composed of endothelial basal media EBM-2 (CC-3156, Lonza) supplemented with 1% penicillin (10,000 units/mL)- streptomycin (10,000 units/mL) (Gibco, Cat No 15140122) and endothelial cell growth medium 2 (EGM-2) SingleQuots (CC-4176, Lonza, Switzerland) containing growth factors (insulin-like growth factor, human fibroblast growth factor, human epidermal growth factor, and vascular endothelial growth factor), and supplements (ascorbic acid, heparin, hydrocortisone, and fetal bovine serum). Cell passage was carried out three times per week, considering the cell doubling time (Erdag et al., 2011). Cell migration was investigated using a wound-healing assay. HUVEC cells were detached from the cell culture flask using 0.25% trypsin-EDTA and harvested when cell confluence was approximately 70%–80%. After confirming that cell viability was at least 90%, the cells were suspended in complete medium to a density of 1 × 10^5 cells/mL. […] Wound areas were measured using the Gen5 software, and the relative wound area per time-point was calculated based on the wound at 0 h.

O=C(O)CN(CCN(CC(=O)O)CC(=O)O)CC(=O)O [EDTA]
wound area still uncovered (wound opening area) (HUVEC monolayer scratched, relative to wound at 0 h, three independent experiments): 82% | effect on wound healing (in words) (HUVEC): no significant wound healing was observed; also recorded: twice the inhibition effect
